Where two headings read alike, the source gives them in different places. Blank lines part the entries; values can stand above or below the compound they belong to.
What was measured:
HT-29 = assay: XTT cell proliferation inhibition, HT-29; assay type: cell-based, humane; details: read-out: IC50 ohne Pyrovat
Text: (§1) Die Substanzen der Beispiele 2.1 bis 2.3 wurden an verschiedenen Zelllinien in An- und Abwesenheit von Pyruvat im Nährmedium auf ihre proliferationshemmende Wirkung getestet. Die Substanzen wurden jeweils in DMSO gelöst. Anschließend wurde der Wirkstoff in acht Konzentrationsintervallen getestet. Der Berechnung der IC50-Werte lagen in jeder Konzentration acht Einzelwertbestimmungen zugrunde. Der IC50-Wert gibt die Wirkstoffkonzentration an, bei der im Vergleich zur Kontrollgruppe, die ausschließlich mit dem Lösungsmittel DMSO behandelt wurde, eine 50%ige Hemmung der Zellproliferation vorlag.

BxPC-3 = assay: XTT cell proliferation inhibition, BxPC-3; assay type: cell-based, humane
Text: as §1

MDA-MB-453 = assay: XTT cell proliferation inhibition, MDA-MB-453; assay type: cell-based, humane; details: Homo sapiens
Text: as §1

MCF-7 = assay: XTT cell proliferation inhibition, MCF-7; assay type: cell-based, humane
Text: as §1

NK1 = assay: XTT cell proliferation inhibition, NK1; assay type: cell-based, Ratten; details: NK1, without pyruvate in the medium; read-out: IC50 ohne Pyrovat
Text: as §1

Wi-38 = assay: XTT cell proliferation inhibition, Wi-38; assay type: cell-based, humane; details: Homo sapiens; Wi-38, with pyruvate in the medium; read-out: IC50 (XTT) mit Pyrovat
Text: as §1

KBV-600 = assay: XTT cell proliferation inhibition, KBV-600; assay type: cell-based; details: KBV-600 (cultured with 600 ng/ml Vinblastin), without pyruvate in the medium; read-out: IC50 ohne Pyrovat
Text: as §1

[1] = test system: 25 verschiedenen Tumormodellen; assay: Colony assay in soft agar, 25 tumour models; assay type: cell-based, menschlichen
Text: (§2) Im Kolonie-Assay werden Tumorstammzellen von verschiedenen menschlichen Tumorentitäten in Softagar kultiviert und die Ausbildung von Tumorkolonien in An- und Abwesenheiten von der erfindungsgemäßen Substanz (Beispiel 2.1, ggf. als Malat der Beispiel 2.2 oder 2.3) ausgezählt. Insgesamt wurde die Substanz an 25 verschiedenen Tumormodellen getestet. Zu den Tumormodellen gehörten Colon-, Pankreas- und Magenkarzinome, kleinzellige und nicht kleinzellige Lungentumore, Brust-, Ovar- und Nierenkarzinome sowie Melanome. Das breite Spektrum von verschiedenen Tumorentitäten sowie die große Anzahl von Modellen ermöglichen nach der Zellkultur eine erneute Prüfung der Wirksamkeit der Substanz und geben erste Hinweise darauf, ob die Substanz Wirkungsselektivität für bestimmte Tumorentitäten besitzt.
(§3) Die Ergebnisse sind in der Figur 1 dargestellt (graphische Analyse der Mittelwerte für die Substanz basierend auf den IC70-Werten). Die Balken stellen die IC70-Konzentrationen im Verhältnis zum Mittelwerte aller IC70-Werte dar. Bei Balken nach links ist der IC70-Wert für das betreffende Modell niedriger als der Mittelwert der IC70-Werte aller Modelle, d.h. diese Modelle sind sensitiver im Vergleich zum Durchschnitt aller Modelle. Balken nach rechts bedeuten höhere IC70-Werte als der Durchschnitt der Modelle und damit eine geringere Sensitivität.

[2] = test system: nicht kleinzelliges Lungentumormodell; assay: Colony assay in soft agar, non-small-cell lung tumour model; assay type: cell-based, menschlichen; details: most sensitive model
Text: as §2, §3

Brusttumormodell = assay: Colony assay in soft agar, breast tumour model; assay type: cell-based, menschlichen; details: least sensitive model
Text: as §2, §3

[3] = test system: Ovarialkarzinom (OVXF 550); assay: Colony assay in soft agar, ovarian carcinoma OVXF 550; assay type: cell-based, menschlichen
Text: as §2
Im gleichen Kolonie-Assay und unter gleichen experimentellen Bedingungen wurden für die erfindungsgemäße Substanz (5-[5-Fluoro-2-oxo-1,2-dihydro-indol-(3Z)-ylidenemythyl]-2,4-dimethyl-1H-pyrrole-3-carboxylic acid (2-diethylamino-ethoxy)-amide (vorzugsweise das Salz der Äpfelsäure, Malate) folgende Werte gefunden: OVXF 550: IC50 = […], IC70 = 21,6 µM

verschiedenen Zelllinien = assay: Cell culture proliferation inhibition, summary over all cell lines; assay type: cell-based; details: span over the cell lines of Table 1; read-out: IC50-Werte
Text: as §1

SMILES: CCN(CC)CCONC(=O)c1c(C)[nH]c(/C=C2\C(=O)Nc3ccc(F)cc32)c1C [Beispiel 2.2, N-[2-(diethylamino)ethoxy]-5-[(Z)-(5-Fluoro-1,2-dihydro-2-oxo-3H-indol-3-ylidene)methyl]-2,4-dimethyl-1H-pyrrole-3-carboxamide, (2S)-hydroxybutanedionate (1:0,5)]
IC50 (HT-29; Homo sapiens, HT-29, HT-29, without pyruvate in the medium): 3 µM
IC50 (BxPC-3; BxPC-3, with pyruvate in the medium, read-out: IC50 (XTT) mit Pyrovat): 2 µM
IC50 (BxPC-3; BxPC-3, without pyruvate in the medium, read-out: IC50 ohne Pyrovat): 2 µM
IC50 (MDA-MB-453; MDA-MB-453, MDA-MB-453, with pyruvate in the medium, read-out: IC50 (XTT) mit Pyrovat): 8 µM

SMILES: CCN(CC)CCONC(=O)c1c(C)[nH]c(/C=C2\C(=O)Nc3ccc(F)cc32)c1C [Beispiel 2.3, N-[2-(diethylamino)ethoxy]-5-[(Z)-(5-Fluoro-1,2-dihydro-2-oxo-3H-indol-3-ylidene)methyl]-2,4-dimethyl-1H-pyrrole-3-carboxamide, (2S)-hydroxybutanedionate (1:1)]
IC50 (MCF-7; MCF-7, with pyruvate in the medium, read-out: IC50 (XTT) mit Pyrovat): 9 µM
IC50 (MCF-7; MCF-7, without pyruvate in the medium, read-out: IC50 ohne Pyrovat): 10 µM
IC50 (HT-29; HT-29, without pyruvate in the medium): 3 µM
IC50 (NK1): 4 µM

SMILES: CCN(CC)CCONC(=O)c1c(C)[nH]c(/C=C2\C(=O)Nc3ccc(F)cc32)c1C [Beispiel 2.1, 5-[5-Fluoro-2-oxo-1,2-dihydro-indol-(3Z)-ylidenemethyl]-2,4-dimethyl-1H-pyrrole-3-carboxylic acid (2-diethylamino-ethoxy)-amide]
IC50 (MCF-7; Homo sapiens, MCF7, MCF-7, with pyruvate in the medium, read-out: IC50 (XTT) mit Pyrovat): 11 µM
IC50 (MCF-7; Homo sapiens, MCF7, MCF-7, without pyruvate in the medium, read-out: IC50 ohne Pyrovat): 8 µM
IC50 (HT-29; Homo sapiens, HT-29, without pyruvate in the medium): 3.5 µM
IC50 (BxPC-3; Homo sapiens, BxPC-3, with pyruvate in the medium, read-out: IC50 (XTT) mit Pyrovat): 1.3 µM
IC50 (BxPC-3; Homo sapiens, BxPC-3, without pyruvate in the medium, read-out: IC50 ohne Pyrovat): 2 µM
IC50 (MDA-MB-453; MDA-MB-453, with pyruvate in the medium, read-out: IC50 (XTT) mit Pyrovat): 11 µM
IC50 (MDA-MB-453; MDA-MB-453, without pyruvate in the medium, read-out: IC50 ohne Pyrovat): 7 µM
IC50 (NK1): 2 µM
IC50 (Wi-38): 11 µM
IC50 (KBV-600): 5 µM
Hemmung der Koloniebildung ([1]; all 25 models): Dosis-abhängigen Hemmung der Koloniebildung
mittlere IC70-Wert ([1]; mean over all 25 tumour models): 20 µM
IC50 ([1]; mean over all 25 tumour models, read-out: mittlere IC50-Wert): 15 µM
IC50 [2]: 4 µM
IC70-Wert [2]: 6 µM
IC70-Wert (Brusttumormodell): 40 µM
IC50 (Brusttumormodell; read-out: höchste IC50-Wert): 30 µM
IC70 [3]: 21,6 µM
IC50 ([3]; substance preferably as malate salt): 16.7 µM

IC50 [3]: 18 µM
SMILES: CCN(CC)CCNC(=O)c1c(C)[nH]c(/C=C2\C(=O)Nc3ccc(F)cc32)c1C [SU11248, 5-[5-Fluoro-2-oxo-1,2-dihydroindol-(3Z)-ylidenemethyl]-2,4-dimethyl-1H-pyrrole-3-carboxylic Acid (2-Diethylaminoethyl)amide, reference compound]
IC70 [3]: 26,7 µM

SMILES: CCN(CC)CCONC(=O)c1c(C)[nH]c(/C=C2\C(=O)Nc3ccc(F)cc32)c1C [SO 272]
IC50 (verschiedenen Zelllinien): 1 to 11 µM

Source: patent publication EP2029580B1, “NOVEL INDOL-PYRROL DERIVATIVES FOR THE TREATMENT OF PROLIFERATIVE AND INFLAMMATORY DISEASES” (ScheBo Biotech AG, priority 2006, dated 2007)
